Results taken from patent publication US20130316994A1, “Methods of Reducing Risk of Hepatobiliary Dysfunction During Rapid Weight Loss with METAP-2 Inhibitors” (Zafgen, Inc., priority 2010, published 2013).

Tested on: alkaline phosphatase
Assay: Administration of MetAP2 inhibitor to obese patients: alkaline phosphatase
Assay type: in vivo, human
Details: 0.1, 0.3 or 0.9 mg/m^2 administered biweekly for 26 days, versus placebo, FIG. 1
Procedure: Patients treated with either a placebo, 0.1 mg/m^2 (approximately 0.2 mg per dose) of the MetAP2 inhibitor O-(4-dimethylaminoethoxycinnamoyl)fumagillol, 0.3 mg/m^2 (approximately 0.6 mg per dose), or 0.9 mg/m^2 of calculated body surface area (approximately 1.9 mg per dose) administered biweekly for 26 days. […] This reduction is indicative of a decrease in hepatic injury or hepatobiliary dysfunction, which is consistent with reduced biliary sludging and/or gallstone formation.

## CO[C@@H]1[C@H](OC(=O)C=Cc2ccc(OCCN(C)C)cc2)CC[C@]2(CO2)[C@H]1[C@@]1(C)O[C@@H]1CC=C(C)C [O-(4-dimethylaminoethoxycinnamoyl)fumagillol]
  reduction in alkaline phosphatase: significant reduction in alkaline phosphatase was observed with increasing MetAP2 inhibitor dosage
